The molecules below were run on human monocyte stimulated cytokine production (TNF-α) (assay: Monocyte assay (LPS-stimulated TNF-α production)). Details: 300 nM, human monocytes, LPS.
Type: cell-based
Experimental: Effect of IKK-β inhibition on human monocyte stimulated cytokine production was assessed as follows: Monocytes were isolated from heparinized whole blood by Ficoll gradient, followed by purification of CD14+ cells using MACS magnetic cell separation beads. Isolated monocytes were then adhered to 96-well culture plates at 1×10^6 cells/mL in RPMI 1640 10% FBS (JRH Biosciences, Lenexa Kans.) for 2 h. Test compounds are added to the wells 30 minutes prior to stimulation with a final vehicle concentration of 0.1% DMSO. Monocytes were activated by the addition of 200 ng/mL endotoxin (LPS; E. coli serotype 026:B6) (Sigma, St. Louis, Mo.) and incubated for 24 hrs at 37 C. Cell-free supernates were analyzed by Alphascreen™ (Perkin Elmer, Waltham, Mass.) for TNF-α using R&D Systems matched pair Abs. Viability of the cells was determined by 10% trypan blue exclusion.
`NC(=O)c1cc(-c2ccccc2)cc2c(C3CC4CCC(C3)S4(=O)=O)c[nH]c12` (stereo not drawn) [Example 192, 3-[(3-endo)-8,8-Dioxido-8-thiabicyclo[3.2.1]oct-3-yl]-5-phenyl-1H-indole-7-carboxamide] was tested, and the inhibition at 0.3 µM was 0 to 100%. Work on `CC(C)[C@H]1CC(c2c[nH]c3c(C(N)=O)cc(-c4ccoc4)cc23)CCS1(=O)=O` (mixture of isomers) [Example 243, (mixture of isomers)-5-(3-Furanyl)-3-[trans-2-(1-methylethyl)-1,1-dioxidotetrahydro-2H-thiopyran-4-yl]-1H-indole-7-carboxamide] yielded an inhibition at 0.3 µM of 0 to 100%. `CC(C)[C@H]1C[C@H](c2c[nH]c3c(C(N)=O)cc(-c4ccccc4)cc23)CCS1(=O)=O` (racemic) [Example 242, racemic-3-[(trans)-2-(1-Methylethyl)-1,1-dioxidotetrahydro-2H-thiopyran-4-yl]-5-phenyl-1H-indole-7-carboxamide] was tested, and the inhibition at 0.3 µM was 0 to 100%. Work on `CC1(C)CC(c2c[nH]c3c(C(N)=O)cc(-c4csc(CN5CCCCCC5)c4)cc23)CCS1(=O)=O` (stereo not shown) [Example 231, 3-(2,2-Dimethyl-1,1-dioxidotetrahydro-2H-thiopyran-4-yl)-5-[5-(hexahydro-1H-azepin-1-ylmethyl)-3-thienyl]-1H-indole-7-carboxamide] yielded an inhibition at 0.3 µM of 0 to 100%.

Same assay, conditions: human CD14+ monocytes, 200 ng/mL LPS, 24 hrs, values given as 'about', read-out: pIC50 in the monocyte assay (converted)
`NC(=O)c1cc(-c2csc(CC3CC3)c2)cc2c(C3CCS(=O)(=O)CC3)c[nH]c12` [Example 97, 5-[5-(Cyclopropylmethyl)-3-thienyl]-3-(1,1-dioxidotetrahydro-2H-thiopyran-4-yl)-1H-indole-7-carboxamide] gave an IC50 of 5.01 to 1000 nM. `CC1(C)CC(c2c[nH]c3c(C(N)=O)cc(-c4ccc(S(=O)(=O)N5CCCC5)s4)cc23)CCS1(=O)=O` (stereo not shown) [Example 239, 3-(2,2-Dimethyl-1,1-dioxidotetrahydro-2H-thiopyran-4-yl)-5-[5-(1-pyrrolidinylsulfonyl)-2-thienyl]-1H-indole-7-carboxamide] was tested, and the IC50 was 5.01 to 1000 nM. For `CNCc1cccc(-c2cc(C(N)=O)c3[nH]cc(C4CCS(=O)(=O)CC4)c3c2)c1` [Example 78, 3-(1,1-Dioxidotetrahydro-2H-thiopyran-4-yl)-5-{3-[(methylamino)methyl]phenyl}-1H-indole-7-carboxamide], the IC50 was 5.01 to 1000 nM. With `NC(=O)c1cc(-c2csc(CCCO)c2)cc2c(C3CCS(=O)(=O)CC3)c[nH]c12` [Example 84, 3-(1,1-Dioxidotetrahydro-2H-thiopyran-4-yl)-5-[5-(3-hydroxypropyl)-3-thienyl]-1H-indole-7-carboxamide] the IC50 was 5.01 to 1000 nM. Molecule `NC(=O)c1cc(-c2ccccc2)cc2c([C@H]3CCS(=O)(=O)[C@@H](c4ccccc4)C3)c[nH]c12` (racemic) [Example 252, 3-(1,1-Dioxido-2-phenyltetrahydro-2H-thiopyran-4-yl)-5-phenyl-1H-indole-7-carboxamide] has an IC50 of 5.01 to 1000 nM. In the case of `NC(=O)c1cc(-c2ccoc2)cc2c(CC3CCS(=O)(=O)CC3)c[nH]c12` [Example 253, 3-[(1,1-dioxidotetrahydro-2H-thiopyran-4-yl)methyl]-5-(3-furanyl)-1H-indole-7-carboxamide], the IC50 was 5.01 to 1000 nM. In the case of `CC(C)[C@H]1C[C@H](c2c[nH]c3c(C(N)=O)cc(-c4ccco4)cc23)CCS1(=O)=O` (racemic) [Example 244, (racemic)-5-(2-Furanyl)-3-[trans-2-(1-methylethyl)-1,1-dioxidotetrahydro-2H-thiopyran-4-yl]-1H-indole-7-carboxamide], the IC50 was 5.01 to 1000 nM. `NC(=O)c1cc(-c2ccccc2)c(F)c2c(C3CCS(=O)(=O)CC3)c[nH]c12` [Example 169, 3-(1,1-Dioxidotetrahydro-2H-thiopyran-4-yl)-4-fluoro-5-phenyl-1H-indole-7-carboxamide] gave an IC50 of 5.01 to 1000 nM. In the case of `CN(C)c1ccc(-c2cc(C(N)=O)c3[nH]cc(C4CCS(=O)(=O)CC4)c3c2)cn1` [Example 67, 5-[6-(Dimethylamino)-3-pyridinyl]-3-(1,1-dioxidotetrahydro-2H-thiopyran-4-yl)-1H-indole-7-carboxamide], the IC50 was 5.01 to 1000 nM. With `CC1(C)CC(c2c[nH]c3c(C(N)=O)cc(-c4ccc(CN5CCCC5)s4)cc23)CCS1(=O)=O` (stereo not shown) [Example 235, 3-(2,2-Dimethyl-1,1-dioxidotetrahydro-2H-thiopyran-4-yl)-5-[5-(1-pyrrolidinylmethyl)-2-thienyl]-1H-indole-7-carboxamide] the IC50 was 5.01 to 1000 nM. In the case of `NC(=O)c1cc(-c2nccs2)cc2c(C3CCS(=O)(=O)CC3)c[nH]c12` [Example 85, 3-(1,1-Dioxidotetrahydro-2H-thiopyran-4-yl)-5-(1,3-thiazol-2-yl)-1H-indole-7-carboxamide], the IC50 was 5.01 to 1000 nM. Molecule `NC(=O)c1cc(-c2nc(Br)cs2)cc2c(C3CCS(=O)(=O)CC3)c[nH]c12` [Example 83, 5-(4-Bromo-1,3-thiazol-2-yl)-3-(1,1-dioxidotetrahydro-2H-thiopyran-4-yl)-1H-indole-7-carboxamide] has an IC50 of over 1000 nM. `NC(=O)c1cc(-c2ccsc2)c(F)c2c(C3CCS(=O)(=O)CC3)c[nH]c12` [Example 170, 3-(1,1-Dioxidotetrahydro-2H-thiopyran-4-yl)-4-fluoro-5-(3-thienyl)-1H-indole-7-carboxamide] was tested, and the IC50 was 5.01 to 1000 nM. Molecule `CN(C)Cc1cc(-c2cc(C(N)=O)c3[nH]cc(CC4CCS(=O)(=O)C4)c3c2)cs1` (stereo not shown) [Example 261, 5-{5-[(Dimethylamino)methyl]-3-thienyl}-3-[(1,1-dioxidotetrahydro-3-thienyl)methyl]-1H-indole-7-carboxamide] has an IC50 of 5.01 to 1000 nM. For `NC(=O)c1cc(-c2ccco2)cc2c(C3CCCS(=O)(=O)C3)c[nH]c12` (stereo not shown) [Example 218, 3-(1,1-Dioxidotetrahydro-2H-thiopyran-3-yl)-5-(2-furanyl)-1H-indole-7-carboxamide], the IC50 was 5.01 to 1000 nM. For `NC(=O)c1cc(-c2ccco2)cc2c([C@H]3CCS(=O)(=O)[C@@H](c4ccccc4)C3)c[nH]c12` (racemic) [Example 251, 3-(1,1-Dioxido-2-phenyltetrahydro-2H-thiopyran-4-yl)-5-(2-furanyl)-1H-indole-7-carboxamide], the IC50 was 5.01 to 1000 nM. `CC(C)[C@H]1C[C@H](c2c[nH]c3c(C(N)=O)cc(-c4ccsc4)cc23)CCS1(=O)=O` (racemic) [Example 241, (racemic)-3-[trans-2-(1-Methylethyl)-1,1-dioxidotetrahydro-2H-thiopyran-4-yl]-5-(3-thienyl)-1H-indole-7-carboxamide] showed an IC50 of 5.01 to 1000 nM. With `COC(=O)c1cc(-c2ccc(F)cc2)cc2c([C@@H]3CCSC3)c[nH]c12` [Example 172, Methyl 5-(4-fluorophenyl)-3-[(3S)-tetrahydro-3-thienyl]-1H-indole-7-carboxylate] the IC50 was 5.01 to 1000 nM. With `COCCN(C)Cc1cc(-c2cc(C(N)=O)c3[nH]cc(C4CCS(=O)(=O)CC4)c3c2)cs1` [Example 71, 3-(1,1-Dioxidotetrahydro-2H-thiopyran-4-yl)-5-[5-({methyl[2-(methyloxy)ethyl]amino}methyl)-3-thienyl]-1H-indole-7-carboxamide] the IC50 was 5.01 to 1000 nM. `NC(=O)c1cc(-c2ccccc2)cc2c(CC3CCS(=O)(=O)C3)c[nH]c12` (stereo not shown) [Example 259, 3-[(1,1-Dioxidotetrahydro-3-thienyl)methyl]-5-phenyl-1H-indole-7-carboxamide] showed an IC50 of 5.01 to 1000 nM. Molecule `NC(=O)c1cc(-c2ccc3c(c2)CCO3)cc2c(C3CCS(=O)(=O)CC3)c[nH]c12` [Example 69, 5-(2,3-Dihydro-1-benzofuran-5-yl)-3-(1,1-dioxidotetrahydro-2H-thiopyran-4-yl)-1H-indole-7-carboxamide] has an IC50 of 5.01 to 1000 nM. In the case of `NC(=O)c1cc(-c2csc(CN3CCCC3)c2)cc2c(C3CCS(=O)(=O)C3)c[nH]c12` (stereo not shown) [Example 187, 3-(1,1-Dioxidotetrahydro-3-thienyl)-5-[5-(1-pyrrolidinylmethyl)-3-thienyl]-1H-indole-7-carboxamide], the IC50 was 5.01 to 1000 nM. Molecule `NC(=O)c1cc(-c2csc(CN3CCCCCC3)c2)cc2c(CC3CCS(=O)(=O)CC3)c[nH]c12` [Example 258, 3-[(1,1-dioxidotetrahydro-2H-thiopyran-4-yl)methyl]-5-[5-(hexahydro-1H-azepin-1-ylmethyl)-3-thienyl]-1H-indole-7-carboxamide] has an IC50 of 5.01 to 1000 nM. `NC(=O)c1cc(-c2csc(CN3CCCCCC3)c2)cc2c(C3CC4CCC(C3)S4(=O)=O)c[nH]c12` (stereo not drawn) [Example 203, 3-[(3-endo)-8,8-Dioxido-8-thiabicyclo[3.2.1]oct-3-yl]-5-[5-(hexahydro-1H-azepin-1-ylmethyl)-3-thienyl]-1H-indole-7-carboxamide] was tested, and the IC50 was 5.01 to 1000 nM. In the case of `CC1(C)CC(c2c[nH]c3c(C(N)=O)cc(-c4ccc(S(=O)(=O)C5CCCC5)s4)cc23)CCS1(=O)=O` (stereo not shown) [Example 240, 5-[5-(Cyclopentylsulfonyl)-2-thienyl]-3-(2,2-dimethyl-1,1-dioxidotetrahydro-2H-thiopyran-4-yl)-1H-indole-7-carboxamide], the IC50 was 5.01 to 1000 nM. For `NC(=O)c1cc(-c2csc(CN3CCC3)c2)cc2c(C3CCS(=O)(=O)C3)c[nH]c12` (stereo not shown) [Example 185, 5-[5-(1-Azetidinylmethyl)-3-thienyl]-3-(1,1-dioxidotetrahydro-3-thienyl)-1H-indole-7-carboxamide], the IC50 was 5.01 to 1000 nM. With `NC(=O)c1cc(-c2cccs2)cc2c([C@H]3CCS(=O)(=O)[C@@H](c4ccccc4)C3)c[nH]c12` (racemic) [Example 249, 3-(1,1-Dioxido-2-cis-phenyltetrahydro-2H-thiopyran-4-yl)-5-(2-thienyl)-1H-indole-7-carboxamide] the IC50 was 5.01 to 1000 nM.

Source: patent US8071584B2 (GlaxoSmithKline LLC, priority 2007, dated 2011)
